From patent US20260240760A1, “Injectable Compositions of Vitamers of Vitamin B12 and Uses Thereof” (Nevakar Injectables Inc., priority 2023, published 2026)

How the values were obtained:
[1] = within 48 hours of injection; current standard-of-care injectable compositions; cited from earlier work
[2] = Cyanocobalamin concentration and appearance of polymer/DMSO compositions and stock solutions, with or without pamoic acid; type: physicochemical; conditions: pamoic acid present relative to not present
Procedure: Compositions comprising 25% polymer and cyanocobalamin either with or without pamoic acid (i.e., to form a cyanocobalamin pamoate salt) in 100% DMSO were prepared starting from 12 mg/g stock solutions, as shown in Tables 2 and 3.

Substance	vitamin B12 excreted in urine [1]	Dissolution of cyanocobalamin in compositions comprising poly(lactide-co-glycolide) and DMSO [2]
vitamin B12	≤ 98%	
cyanocobalamin pamoate		dissolves significantly more effectively
